Measurements as given in ChEMBL document CHEMBL1132869, “The first synthesis of clausenamine-A and cytotoxic activities of three biscarbazole analogues against cancer cells” (2000).

Assays:
Settings in all cases: Homo sapiens
[1] = test system: SK-MEL-5; experiment: In vitro inhibitory activity against SK-MEL-5 melanoma cancer cell lines; type: functional
[2] = test system: OVCAR-5; experiment: In vitro inhibitory activity against OVCAR-5 ovarian cancer cell lines; type: functional
[3] = test system: MDA-MB-435; experiment: In vitro inhibitory activity against MDA-MB-435 breast cancer cell lines; type: functional
[4] = test system: UO-31; experiment: In vitro inhibitory activity against UO-31 renal cancer cell lines; type: functional
[5] = test system: MDA-N; experiment: In vitro inhibitory activity against MDA-N breast cancer cell lines; type: functional
[6] = test system: K562; experiment: In vitro inhibitory activity against K-562 cancer cell lines; type: functional
[7] = test system: HL-60; experiment: In vitro inhibitory activity against HL-60 cancer cell lines; type: functional
[8] = test system: MOLT-4; experiment: In vitro inhibitory activity against MOLT-4 cancer cell lines; type: functional
[9] = test system: SF-295; experiment: In vitro inhibitory activity against SF-295 […] cancer cell lines; type: functional
[10] = test system: A498; experiment: In vitro inhibitory activity against A-498 […] cancer cell lines; type: functional
[11] = test system: HCT-15; experiment: In vitro inhibitory activity against HCT-15 colon cancer cell lines; type: functional
[12] = test system: CAKI-1; experiment: In vitro inhibitory activity against CAKI-1 […] cancer cell lines; type: functional
[13] = test system: SR; experiment: In vitro inhibitory activity against SR cancer cell lines; type: functional
[14] = test system: RPMI-8226; experiment: In vitro inhibitory activity against […] cancer cell lines; type: functional
[15] = test system: MCF7; experiment: In vitro inhibitory activity against MCF-7 breast cancer cell lines; type: functional
[16] = test system: NCI-H23; experiment: In vitro inhibitory activity against NIC-H23 lung cancer cell lines
[17] = test system: HT-29; experiment: In vitro inhibitory activity against HT-29 colon cancer cell lines; type: functional

Row | Structure (SMILES) | GI50 [1] | GI50 [2] | GI50 [3] | GI50 [4] | GI50 [5] | GI50 [6] | GI50 [7] | GI50 [8] | GI50 [9] | GI50 [10] | GI50 [11] | GI50 [12] | GI50 [13] | GI50 [14] | GI50 [15] | GI50 [16] | GI50 [17]
1 | Cc1cc2c([nH]c3ccccc32)c(O)c1-c1c(C)cc2c([nH]c3ccccc32)c1O | 16.5 µM | 15 µM | 15 µM | 13 µM | 14.7 µM | 12.3 µM | 32.9 µM | 3.62 µM | 17.4 µM | 15.9 µM | 10.1 µM | 14.7 µM | 3.16 µM | 3.85 µM | 11.2 µM | 12.4 µM | 6.04 µM
2 | COc1cc(OC)c2[nH]c3c(O)c(-c4c(C)cc5c([nH]c6c(OC)cc(OC)cc65)c4O)c(C)cc3c2c1 | 8.38 µM | 9.03 µM | 12 µM | 6.84 µM | 8.83 µM | 9.7 µM | 2.82 µM | 8.59 µM | 10.2 µM | 7.82 µM | 8.28 µM | 9.89 µM | 9.01 µM | 10.5 µM | 8.68 µM | 8.2 µM | 8.03 µM
3 | COc1ccc2[nH]c3c(O)c(-c4c(C)cc5c([nH]c6ccc(OC)cc65)c4O)c(C)cc3c2c1 | 4.34 µM | 3.82 µM | 4.34 µM | 3.78 µM | 4.5 µM | 4.04 µM | 0.0321 µM | 3.23 µM | 5.11 µM | 4.78 µM | 4.2 µM | 4.27 µM | 3.97 µM | 3.61 µM | 4.49 µM | 4.48 µM | 3.71 µM
